# From US20170266284A1, “PERSONALIZED METHODS FOR TREATING DISEASE BY RADIOSENSITIZATION” (Shuttle Pharmaceuticals, LLC, priority 2014, published 2017)
# “And” between values parts separate entries of the source, which are not always exact repeats. Equal values may be shown once.
# Tests used:
# [1] = system: clinical Stage 2 and 3 rectal cancers; conditions: cited from earlier work; for patients achieving tumor (T stage) downstaging: pre-operative chemoradiation, continuous infusion 5-FU or twice daily capecitabine
# cells = conditions: compared to cells without the defective DNA; cited from earlier work
# High Grade Sarcomas = experiment: IUdR as radiosensitizer with RT in patients with high grade sarcomas, vs historical controls; format: in vivo, human
# [2] = multiple daily oral IPdR dosing, pre-clinical; cited from earlier work
# [3] = system: proliferating normal tissues (bone marrow and intestine); conditions: daily oral IPdR compared to continuous infusion IUdR; cited from earlier work
# [4] = system: locally advanced rectal cancer; experiment: Concomitant daily oral capecitabine and oral IPdR during radiation therapy (proposed); format: in vivo, human; conditions: oral IPdR with oral capecitabine during radiation therapy; expected ("may")
# Protocol: This may, in turn, correlate with increased survival and improved quality of life for these patients. By establishing the MTD and documenting the plasma PK data for once daily oral administration of IPdR combined with fractionated radiation therapy (37.5 Gy @ 2.5 Gy fractions over 3 weeks), the daily (or twice daily) IPdR dose may be reduced by two dose levels, while using standard doses of capecitabine (750 mg/M^2) and radiation therapy (50.4-54 Gy @ 1.8 Gy fractions).
# [5] = system: subcutaneous xenografts of human glioblastoma cell lines and human colorectal cancer cell lines; conditions: daily oral IPdR compared to continuous infusion IUdR; cited from earlier work
smiles,measurement,setting,value
"O=c1[nH]cc(F)c(=O)[nH]1 [5-FU, 5-fluorouracil]",patients achieving tumor (T stage) downstaging,[1],about 45%
"O=c1[nH]c(=O)n([C@H]2C[C@H](O)[C@@H](CO)O2)cc1Br [BUdR, 5-bromo-2′-deoxyuridine]",cells more susceptible to the lethal effects of radiation therapy,cells,two to three fold
"O=c1[nH]c(=O)n([C@H]2C[C@H](O)[C@@H](CO)O2)cc1I [IUdR, 5-iodo-2′-deoxyuridine]",Median Survival (Months),"High Grade Sarcomas; RT + IUdR + Surgery, High Grade Sarcomas (Resectable), RT + Surgery 25%",45%
same,Median Survival (Months),"High Grade Sarcomas; RT + IUdR, High Grade Sarcomas (Un-Resectable), RT alone <10%",60%
same,cells more susceptible to the lethal effects of radiation therapy,cells,two to three fold
"O=c1ncc(I)cn1[C@H]1C[C@H](O)[C@@H](CO)O1 [IPdR, 5-iodo-2-pyrimidinone-2′-deoxyribose]",acute and subacute normal tissue toxicities,[2],without significant dose-limiting acute and subacute normal tissue toxicities
same,decreased % IUdR-DNA incorporation into proliferating normal tissues (bone marrow and intestine / gut epithelium),[3],2-3 fold and 2 fold
same,pCR rate,[4],> 30%
same,increased % IUdR-DNA incorporation into tumor tissues,[5],2-3 fold
CCCCCOC(=O)Nc1nc(=O)n([C@@H]2O[C@H](C)[C@@H](O)[C@H]2O)cc1F [capecitabine],"pCR, local recurrence, and overall survival, comparison with infusional 5-FU",[1]; capecitabine administered twice daily,equivalent to infusional 5-FU
same,patients achieving tumor (T stage) downstaging,[1],about 45%
